From patent US20250388625A1, “CYCLOSPORINE ANALOGUES” (priority 2022, published 2025)

Assays:
IFITM3 [1] = biological target: T1, IFITM3 (Homo sapiens, UniProt Q01628); assay type: cell-based; design: treated with 10 ng/ml type 1 interferon (IFNβ) overnight to induce IFITM3 expression; endogenous in cells; host or cells: THP-1 (human monocytic cell line), IFNβ-treated
CypA = CypA (Homo sapiens, UniProt P62937); test: biochemical; assay type: binding
Experimental: CypA binding was carried out using surface plasmon resonance as described (Warne J Biol Chem. 2016 Feb. 26; 291 (9): 4356-73).
Surface Plasmon Resonance (SPR) using Biacore at 25° C. was used to study the binding interactions between CypA and various inhibitors. The SPR binding experiments used a duel flow cell with a blank reference. The sensor chip surface was initially activated with a mixture of N-hydroxysuccinimide (NHS,) and N-(3-dimethyl-aminopropyl)-N′-ethyl-carbodiimide hydrochloride (EDC) for 420 s with a flow rate of 10 μl/min on blank flow cell 1 in addition to flow cell 2.
CypA protein was diluted to a concentration of 50 μg/mL by the addition of 10 mM sodium acetate pH 5 solution before immobilisation and covalent attachment to the carboxy-methylated dextran matrix of the Biacore CM5 sensor chip. CypA was run against the surface for 420 s and then any unreacted surface was quenched by 420 s of ethanolamine.
Immobilisations were carried out in the presence of JW47 (Warne J Biol Chem. 2016 Feb. 26; 291 (9): 4356-73).
No regeneration stage was required if the dissociation time was sufficient.
Solvent correction was carried out in each experiment using 8 different DMSO dilutions as reference: 2.8%, 2.6%, 2.4%, 2.2%, 2%, 1.8%, 1.6% & 1.5%.
A 50/50 mixture of buffer and DMSO is required to include a wash cycle in the experiment.
50 μl of CypA (0.1 mg/ml)+40 μL of 10 mM sodium acetate pH5+10 μl of 600 μM of JW47 DMSO solution. This mixture was allowed to stand at room temperature for 10 mins prior to set-up in the injection rack.

IFITM3 [2] = biological target: T1, IFITM3; test: IFITM3 levels by immunoblot in IFNβ-treated THP-1 cells (FIG. 9A); assay type: cell-based; design: treated with 10 ng/ml type 1 interferon (IFNβ) overnight to induce IFITM3 expression; endogenous in cells; host or cells: THP-1 (human monocytic cell line), IFNβ-treated; conditions: 5 μM, 6 hours; Actin loading control
Experimental: THP-1 cells (human monocytic cell line) were treated with […] Type I interferon (IFNβ) overnight to induce IFITM3 expression. […] Protein samples were harvested 6 hours later and the IFITM3 levels measured by immunoblot with Actin detected as a loading control. IFN induces IFITM3.

Human stem cells (HSC) [3] = test: Mean fluorescent intensity of transduced human stem cells (FIG. 7); assay type: cell-based; conditions: Examples 5 and 6
Experimental: Here a different measurement was made of transgene expression using the cells from the same experiment as that above (Example 5). Rather than measuring the number of cells transduced (% infection) the mean fluorescent intensity (greenness of the transgene expressing cells) was measured.

[4] = system: SARS-COV-2 (Alpha, Delta or Omicron isolates); test: SARS-COV-2 replication in Calu-3 lung epithelial cells by RT-qPCR (FIG. 9B); assay type: cell-based
Human stem cells (HSC) [5] = test: Cell viability of human stem cells (FIG. 5); conditions: compared with PS+LB treatment

CypA, sequence (P62937 whole entry): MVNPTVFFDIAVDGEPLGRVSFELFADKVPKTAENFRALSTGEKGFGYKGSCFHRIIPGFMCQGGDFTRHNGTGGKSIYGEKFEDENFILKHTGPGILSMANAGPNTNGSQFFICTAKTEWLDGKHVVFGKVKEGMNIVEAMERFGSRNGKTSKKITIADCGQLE
T1 sequence (Q01628 whole entry): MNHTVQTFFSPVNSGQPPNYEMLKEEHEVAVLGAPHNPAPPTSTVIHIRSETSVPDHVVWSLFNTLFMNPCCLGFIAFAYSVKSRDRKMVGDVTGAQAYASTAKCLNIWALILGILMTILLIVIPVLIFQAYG

## CC[C@@H]1NC(=O)[C@H]([C@H](O)[C@H](C)C/C=C/c2ccc(C(=O)OCCn3ccnc3)cc2)N(C)C(=O)[C@H](C(C)C)N(C)C(=O)[C@H](CC(C)C)N(C)C(=O)[C@H](CC(C)C)N(C)C(=O)[C@@H](C)NC(=O)[C@H](C)NC(=O)[C@H](CC(C)C)N(C)C(=O)[C@H](C(C)C)NC(=O)[C@H](CC(C)C)N(C)C(=O)CN(C)C1=O [JW3-158, 2-(1H-imidazol-1-yl)ethyl-4-((4R,5R,E)-5-((2S,5S,11S,14S,17S,20S,23R,26S,29S,32S)-5-ethyl-11,17,26,29-tetraisobutyl-14,32-diisopropyl-1,7,10,16,20,23,25,28,31-nonamethyl-3,6,9,12,15,18,21,24,27,30,33-undecaoxo-1,4,7,10,13,16,19,22,25,28,31-undecaazacyclotritriacontan-2-yl)-5-hydroxy-4-methylpent-1-en-1-yl)benzoate]
IFITM3 [1]
  fold rescue compared to inhibited baseline: 29.2 fold
CypA
  koff: 0.00217 s⁻¹
  kon: 13400 M⁻¹ s⁻¹
CypA; Kd (Affinity), SPR, Biacore, 25° C.
  Kd: 1830 nM
CypA; Kd (Kinetics), SPR, Biacore, 25° C.
  Kd: 160 nM
CypA; SPR, Biacore, 25° C.
  Max Response: 27.0 RU
IFITM3 [2]
  IFITM3 protein levels by immunoblot: most potent effect
Human stem cells (HSC) [3]
  overall performance as transduction enhancer in stem cells: not working so well
[4]
  inhibition of viral replication (E copies, fold change vs DMSO): inhibits Delta and Omicron replication to a greater extent than Alpha
Human stem cells (HSC) [5]
  cell viability after treatment: viability is good
